The source of these data is article PMC6747323, “Discovery of Novel Angiotensin-Converting Enzyme Inhibitory Peptides from Todarodes pacificus and Their Inhibitory Mechanism: In Silico and In Vitro Studies” (International Journal of Molecular Sciences, 2019).

Ends that are not written are not given here. Peptide text beside a SMILES is read from it.

For one test, the target named is T1, ACE from rabbit lungs (Oryctolagus cuniculus, UniProt P12822).
T1 construct: The ACE from rabbit lungs; purchased Sigma Chemical Company (St. Louis, MO, USA); host or cells: rabbit lung tissue
T1 sequence (P12822 34-1310): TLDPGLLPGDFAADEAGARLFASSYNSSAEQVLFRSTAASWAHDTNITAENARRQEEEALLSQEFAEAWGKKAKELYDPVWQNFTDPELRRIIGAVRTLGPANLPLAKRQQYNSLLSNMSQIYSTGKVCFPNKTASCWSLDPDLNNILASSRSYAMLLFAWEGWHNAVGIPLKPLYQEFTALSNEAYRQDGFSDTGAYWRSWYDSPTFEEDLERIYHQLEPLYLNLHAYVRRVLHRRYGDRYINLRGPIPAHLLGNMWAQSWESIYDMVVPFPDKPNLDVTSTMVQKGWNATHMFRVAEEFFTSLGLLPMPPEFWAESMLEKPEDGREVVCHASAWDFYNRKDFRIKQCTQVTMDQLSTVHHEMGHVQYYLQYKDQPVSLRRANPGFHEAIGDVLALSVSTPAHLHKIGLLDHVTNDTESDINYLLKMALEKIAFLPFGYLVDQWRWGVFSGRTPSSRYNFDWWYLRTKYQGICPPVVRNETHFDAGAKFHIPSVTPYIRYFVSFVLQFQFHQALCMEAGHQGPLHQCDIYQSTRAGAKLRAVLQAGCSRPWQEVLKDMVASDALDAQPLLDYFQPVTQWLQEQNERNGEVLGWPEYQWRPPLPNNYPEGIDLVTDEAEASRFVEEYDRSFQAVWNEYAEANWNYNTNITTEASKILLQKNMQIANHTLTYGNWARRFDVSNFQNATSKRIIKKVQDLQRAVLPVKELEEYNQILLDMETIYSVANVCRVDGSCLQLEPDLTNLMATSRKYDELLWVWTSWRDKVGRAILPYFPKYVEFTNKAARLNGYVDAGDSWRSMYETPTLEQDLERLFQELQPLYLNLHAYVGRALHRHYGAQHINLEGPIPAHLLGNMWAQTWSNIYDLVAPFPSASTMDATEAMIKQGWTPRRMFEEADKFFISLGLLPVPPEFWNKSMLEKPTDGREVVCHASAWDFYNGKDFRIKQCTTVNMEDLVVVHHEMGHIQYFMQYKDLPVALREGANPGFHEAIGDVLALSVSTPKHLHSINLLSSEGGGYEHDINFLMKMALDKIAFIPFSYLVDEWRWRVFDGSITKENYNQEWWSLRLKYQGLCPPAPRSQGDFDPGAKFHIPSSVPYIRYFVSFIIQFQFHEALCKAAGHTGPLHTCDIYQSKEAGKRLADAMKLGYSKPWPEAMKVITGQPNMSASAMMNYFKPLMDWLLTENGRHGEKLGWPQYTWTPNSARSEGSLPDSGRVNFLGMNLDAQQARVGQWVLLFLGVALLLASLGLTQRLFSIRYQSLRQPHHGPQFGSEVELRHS
Nature of the test: In vitro ACE inhibitory activity (HHL substrate, hippuric acid by UPLC). In kind it is biochemical. Conditions: synthesized new peptides, read-out: pIC50 (ACE inhibition) (converted). An excerpt:
The tested peptides from t hmyosin heavy chain in Todarodes pacificus were provided by Anhui Guoping Pharmaceutical Co., Ltd. (Hefei, China). The ACE from rabbit lungs, hippuryl-histidyl-leucine (HHL), and hippuric acid (HA) were purchased from the Sigma Chemical Company (St. Louis, MO, USA). The solvents for high performance liquid chromatography (HPLC) including acetonitrile and trifluoroacetic acid (TFA) were provided by Merck (Darmstadt, Germany). All the other reagents and chemicals used were of analytical grade.
The ACE inhibitory activity analysis was performed based on Yu et al. with some modifications. HHL was dissolved in 100 mM sodium borate buffer (pH 8.3) to achieve a final concentration of 5.8 mM. A reaction mixture containing 50 μL of ACE solution (100 mU/mL) and 100 μL of sample were pre-incubated at 37 °C for 5 min. Subsequently, 150 μL HHL was added and the mixture was incubated at 37 °C for 60 min. The reaction was terminated by the addition of 200 μL of 0.1 M HCl. […] The amount of HA was determined via an ultra-performance liquid chromatography on a Waters Acquity UPLC BEH C18 column (1.7 μm, 2.1 mm × 100 mm). […] The degree of ACE inhibition was calculated as follows:(1) ACE inhibition activity (%)=A−B/A×100% where A was the HA concentration of a reaction containing ACE without peptide, B was the HA concentration of a reaction in the presence of ACE and peptide. […]
Consider `NCCCC[C@H](NC(=O)[C@@H]1CCCN1C(=O)[C@@H]1CCCN1C(=O)[C@@H](N)CC(N)=O)C(=O)O` [NPPK, Asn-Pro-Pro-Lys] (H-NPPK-OH), for which the IC50 is 38.9 µM.

The next test concerns ACE.
Test: not given
The following applies: from porcine skeletal muscle hydrolysate; cited from earlier work.
As for “Met-Asn-Pro-Pro-Lys (MNPPK; printed: Met-Asn-Pro-Pro-Lys)”, the “pIC50 (ACE inhibition)” value is reported as 3.02.

Still in this test, the particulars now being: peptide derived from catfish myofibrillar protein; cited from earlier work.
Turning to “Ile-Glu-Lys-Pro (IEKP; printed: Ile-Glu-Lys-Pro)”, the “IC50 (ACE inhibition)” value is 2.1 µg/mL.

Still in this test, the particulars now being: β-casein fragment; cited from earlier work.
Consider KVLPVPQ, for which the “ACE inhibitory activity in vitro” value was “relatively weak”.

The subject of another test is spontaneously hypertensive rats.
Test: not given
Conditions: cited from earlier work. Further details: method as in PMID 28102435.
Regarding KVLPVPQ, the Antihypertensive effect entry was “effective”.

A further test deals with ACE.
Test: not given
The following applies: Table S1, plant proteases without PREP; ref AHTpin and BIOPEP-UWM databases; cited from earlier work. Also on record: method as in AHTpin and BIOPEP-UWM databases.
The term pIC50 denotes the negative decadic logarithm of the IC50, by convention in mol/L. For Ala-Gly [AG], the pIC50 was 2.60.
For the compound Ala-His [AH], the pIC50 was 3.28.
Take Ala-Phe [AF]: the pIC50 is 3.78.
Take Ala-Ser-Leu [ASL]: the pIC50 is 3.99.
For Ala-Tyr [AY], the pIC50 was 4.85.
As to Asn-Gly [NG], the pIC50 was 1.92.
On to Asn-Tyr [NY], for which the negative logarithm of the IC50 (pIC50) was 4.49.
In the case of Asp-Gly [DG], the pIC50 is on record as 5.67.
Turning to Asp-Tyr [DY], the pIC50 is on record as 4.00.
In the case of Gln-Lys [QK], the pIC50 is listed as 3.05.
Regarding Glu-Gly [EG], the negative-log IC50 (pIC50) is reported as 2.00.
Glu-Trp [EW]: the pIC50 is 3.86.
In the case of Glu-Tyr [EY], the negative logarithm of the IC50 (pIC50) is on record as 5.57.
With Ile-Arg [IR], the pIC50 was 3.16.
With Ile-Leu, the negative-log IC50 (pIC50) is 4.26.
Turning to Ile-Phe [IF], the pIC50 was 4.18.
With Ile-Tyr [IY], the pIC50 is listed as 5.68.
For the compound Met-Gly [MG], the pIC50 was 2.32.
As to Met-Phe [MF], the pIC50 is on record as 6.04.
Take Met-Tyr [MY]: the pIC50 was 3.71.
As to Pro-Leu [PL], the negative-log IC50 (pIC50) was 3.47.
For Pro-Pro-Lys [PPK], the pIC50 is 3.00.
In the case of Ser-Gly [SG], the pIC50 is given as 2.07.
On to Ser-Phe [SF], for which the pIC50 is 3.89.
Ser-Thr [ST]: the pIC50 was 5.39.
Turning to Thr-Phe [TF], the pIC50 is reported as 4.74.
Trp-Leu [WL]: the pIC50 is 4.52.
Turning to Val-Ala-Phe [VAF], the pIC50 is listed as 4.45.
With Val-Phe [VF], the pIC50 is listed as 5.04.

Staying with this test, now noted: Table S2, plant proteases with PREP; ref AHTpin and BIOPEP-UWM databases; cited from earlier work.
Consider Ala-Ile-Pro [AIP], for which the pIC50 is listed as 3.46.
In the case of Ala-Pro [AP], the pIC50 is 4.54.
In the case of Ala-Val-Pro [AVP], the pIC50 is recorded as 3.47.
Regarding Lys-Pro [KP], the pIC50 is 4.66.
For the compound Thr-Pro [TP], the pIC50 is 3.54.
Regarding Val-Pro [VP], the pIC50 is listed as 3.38.
